In PubChem BioAssay AID2060896 (Molecular Pharmacology Branch, DTP, NCI, 2025):
pIC50: −log10 of the molar value.

System: 941728-121-R-J1-PDC complex spheroid viability
Test: Anticancer human tumor 941728-121-R-J1-PDC patient-derived lung adenocarcinoma cell line growth inhibition [RAS]
Conditions: for pIC50: curve of first compound; for viability, T/C: stronger effect = lower value
In short: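 Agents were tested in combination matrices in half-log decrements from a top concentration at or near clinical Cmax (10 microM if undetermined). Targets were multi-cell spheroids of tumour lines plus HUVEC and MSC stromal cells.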

[1] = second compound 0.00316 µM, first compound 0.00316 µM
[2] = second compound 0.00316 µM, first compound 0.01 µM
[3] = second compound 0.00316 µM, first compound 0.0316 µM
[4] = second compound 0.00316 µM, first compound 0.1 µM
[5] = second compound 0.00316 µM, first compound 0.316 µM
[6] = second compound 0.00316 µM, first compound 1 µM
[7] = second compound 0.01 µM, first compound 0.00316 µM
[8] = second compound 0.01 µM, first compound 0.01 µM
[9] = second compound 0.01 µM, first compound 0.0316 µM
[10] = second compound 0.01 µM, first compound 0.1 µM
[11] = second compound 0.01 µM, first compound 0.316 µM
[12] = second compound 0.01 µM, first compound 1 µM
[13] = second compound 0.0316 µM, first compound 0.00316 µM
[14] = second compound 0.0316 µM, first compound 0.01 µM
[15] = second compound 0.0316 µM, first compound 0.0316 µM
[16] = second compound 0.0316 µM, first compound 0.1 µM
[17] = second compound 0.0316 µM, first compound 0.316 µM
[18] = second compound 0.0316 µM, first compound 1 µM
[19] = second compound 0.1 µM, first compound 0.00316 µM
[20] = second compound 0.1 µM, first compound 0.01 µM
[21] = second compound 0.1 µM, first compound 0.0316 µM
[22] = second compound 0.1 µM, first compound 0.1 µM
[23] = second compound 0.1 µM, first compound 0.316 µM
[24] = second compound 0.1 µM, first compound 1 µM
[25] = second compound 0.316 µM, first compound 0.00316 µM
[26] = second compound 0.316 µM, first compound 0.01 µM
[27] = second compound 0.316 µM, first compound 0.0316 µM
[28] = second compound 0.316 µM, first compound 0.1 µM
[29] = second compound 0.316 µM, first compound 0.316 µM
[30] = second compound 0.316 µM, first compound 1 µM
[31] = second compound 1 µM, first compound 0.00316 µM
[32] = second compound 1 µM, first compound 0.01 µM
[33] = second compound 1 µM, first compound 0.0316 µM
[34] = second compound 1 µM, first compound 0.1 µM
[35] = second compound 1 µM, first compound 0.316 µM
[36] = second compound 1 µM, first compound 1 µM
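Further: spheroids exposed to compounds for 7 days before readout.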
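Wherever viability, T/C is given: 100% = DMSO vehicle control viability.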

## C=CC(=O)Nc1cc(Nc2nccc(-c3cn(C)c4ccccc34)n2)c(OC)cc1N(C)CCN(C)C + C=CC(=O)N1CCN(c2nc(OCC3CCCN3C)nc3c(F)c(-c4nc(N)cc(C)c4C(F)(F)F)c(Cl)cc23)C(C)C1
Second compound 0.00316 µM
  pIC50: > 8.50
Second compound 0.01 µM
  pIC50: > 8.50
Second compound 0.0316 µM
  pIC50: > 8.50
Second compound 0.1 µM
  pIC50: > 8.50
Second compound 0.316 µM
  pIC50: > 8.50
Second compound 1 µM
  pIC50: > 8.50
[1]
  viability, T/C: 17.3%
[2]
  viability, T/C: 25.6%
[3]
  viability, T/C: 17.1%
[4]
  viability, T/C: 21.1%
[5]
  viability, T/C: 17.6%
[6]
  viability, T/C: 16.7%
[7]
  viability, T/C: 20.4%
[8]
  viability, T/C: 18.3%
[9]
  viability, T/C: 19.5%
[10]
  viability, T/C: 18.2%
[11]
  viability, T/C: 14.4%
[12]
  viability, T/C: 17.3%
[13]
  viability, T/C: 18.4%
[14]
  viability, T/C: 16.9%
[15]
  viability, T/C: 17.2%
[16]
  viability, T/C: 17.9%
[17]
  viability, T/C: 17.5%
[18]
  viability, T/C: 15.8%
[19]
  viability, T/C: 21.1%
[20]
  viability, T/C: 19.7%
[21]
  viability, T/C: 15.5%
[22]
  viability, T/C: 15.8%
[23]
  viability, T/C: 18.7%
[24]
  viability, T/C: 16.4%
[25]
  viability, T/C: 19.8%
[26]
  viability, T/C: 18.1%
[27]
  viability, T/C: 15.7%
[28]
  viability, T/C: 17.1%
[29]
  viability, T/C: 19.7%
[30]
  viability, T/C: 15.6%
[31]
  viability, T/C: 20.6%
[32]
  viability, T/C: 15.7%
[33]
  viability, T/C: 18.2%
[34]
  viability, T/C: 17.3%
[35]
  viability, T/C: 18.9%
[36]
  viability, T/C: 16.2%

## O=C(c1ccc(F)c(F)c1Nc1ccc(I)cc1F)N1CC(O)([C@@H]2CCCCN2)C1 + C=CC(=O)N1CCN(c2nc(OCC3CCCN3C)nc3c(F)c(-c4nc(N)cc(C)c4C(F)(F)F)c(Cl)cc23)C(C)C1
Second compound 0.00316 µM
  pIC50: > 8.50
Second compound 0.01 µM
  pIC50: > 8.50
Second compound 0.0316 µM
  pIC50: > 8.50
Second compound 0.1 µM
  pIC50: > 8.50
Second compound 0.316 µM
  pIC50: > 8.50
Second compound 1 µM
  pIC50: > 8.50
[1]
  viability, T/C: 20.4%
[2]
  viability, T/C: 19.1%
[3]
  viability, T/C: 15.5%
[4]
  viability, T/C: 14.5%
[5]
  viability, T/C: 12.7%
[6]
  viability, T/C: 11.8%
[7]
  viability, T/C: 18.9%
[8]
  viability, T/C: 14.6%
[9]
  viability, T/C: 16.7%
[10]
  viability, T/C: 12.9%
[11]
  viability, T/C: 12.5%
[12]
  viability, T/C: 11.6%
[13]
  viability, T/C: 16.1%
[14]
  viability, T/C: 13.8%
[15]
  viability, T/C: 13.3%
[16]
  viability, T/C: 13.9%
[17]
  viability, T/C: 13%
[18]
  viability, T/C: 12.1%
[19]
  viability, T/C: 22%
[20]
  viability, T/C: 13.5%
[21]
  viability, T/C: 14.5%
[22]
  viability, T/C: 13.8%
[23]
  viability, T/C: 12.8%
[24]
  viability, T/C: 10.9%
[25]
  viability, T/C: 15%
[26]
  viability, T/C: 13.7%
[27]
  viability, T/C: 13.9%
[28]
  viability, T/C: 13.1%
[29]
  viability, T/C: 12.4%
[30]
  viability, T/C: 13.5%
[31]
  viability, T/C: 16.4%
[32]
  viability, T/C: 17%
[33]
  viability, T/C: 15.3%
[34]
  viability, T/C: 13.2%
[35]
  viability, T/C: 13.2%
[36]
  viability, T/C: 11.1%
